Experimental data as given in patent publication US6709849B2, “Dietary supplements for regulating male hormone” (priority 2002, dated 2004).

Tests used:
[1] = system: castrated male Wistar rats; assay: Growth of prostate, seminal vesicle and glandulae preputiales in castrated Wistar rats (wet weight); assay type: in vivo, rat; settings: daily for 14 days, sacrificed 24 hours after last administration, yeast 3 ml daily intragastric, testosterone propionate 25 mg/kg daily i.m.
Procedure: (§1) The activated yeast compositions used in the following examples were prepared as described above, using Saccharomyces cerevisiae Hansen AS2.504, cultured in the presence of an alternating electric field having the electric field frequency and field strength exemplified in the parentheses following the recommended ranges listed in Section IV, supra. Control (i.e., untreated) yeast compositions were those prepared in the same manner as described in Section VI, supra, except that the yeast cells were cultured in the absence of EMFs. Unless otherwise indicated, the yeast compositions and the corresponding controls were administered to the animals by intragastric feeding.
To test the ability of the EMF-treated AS2.504 cells to regulate male hormone, twenty-four healthy male Wistar rats (about 50 g body weight, 20 days old) were selected. Under ether anesthesia, both testes of each rat were removed under sterile conditions. The castrated rats were then randomly divided into four equal groups. The activated yeast composition was administered to Group A rats at a dose of 3 ml daily continuously for 14 consecutive days. […]
Each rat was sacrificed 24 hours after the last administration of the composition of interest. […] The wet weight of the prostate and seminal vesicle was recorded (Table 2). […] The wet weight of the removed glandulae preputiales was also recorded (Table 2).

[2] = system: castrated male NIH-grade mice; assay: Growth of seminal vesicle and glandulae preputiales in castrated mice (weight); assay type: in vivo, mouse; settings: 7 days, yeast 1.5 ml/dose twice daily intragastric, testosterone propionate 20 mg/kg i.m. every other day
Procedure: as §1
Forty male NIH-grade castrated mice (about 25-30 g each) were randomly divided into four equal groups. Three days after castration, the activated yeast composition was administered to each of the Group A mice twice daily at 1.5 ml/dose for seven consecutive days. The control yeast composition was administered to each of the Group B mice at the same daily dosage for seven consecutive days. Testosterone propionate was injected intramuscularly to each of the Group C mice in the buttocks at 20 mg/kg every other day, i.e., on days 1, 3, 5, and 7, for a total of 7 days. Saline was orally administered to each of the Group D […] twice daily at 1.5 ml/dose for seven consecutive days. […]

CCC(=O)O[C@H]1CC[C@H]2[C@@H]3CCC4=CC(=O)CC[C@]4(C)[C@H]3CC[C@]12C [testosterone propionate, Testosterone propionate]
Glandulae Preputiales (wet weight) [1]: 98.6 ± 15.8 | Prostate and Seminal Vesicle (wet weight) [1]: 91.5 ± 12.8 | Glandulae Preputiales (mg/100 g body weight) [2]: 323.7 ± 50.6 mg/100 g body weight | Seminal Vesicle (mg/100 g body weight) [2]: 268.2 ± 56.2 mg/100 g body weight
